# Assay results: patent publication US12550885B2, “Red blood cell storage solutions, solution additives, and methods for improving the storage of red blood cells” (University of Cincinnati, priority 2016, dated 2026)
# Columns and labels:
# human pRBCs [1] = assay: Microparticle formation in stored human pRBCs (Nanoparticle Tracking Analysis); assay type: cell-based; settings: human pRBCs stored at 4° C., increasing doses added prior to storage
# Experimental: (§1) Human pRBCs were obtained from Hoxworth Blood Bank (Cincinnati, OH) and stored at 4° C. for 42 days according to standard blood banking practice. Murine pRBCs were obtained as previously described. Briefly, donor mice were anesthetized with intraperitoneal pentobarbital (0.1 mg/g body weight) and blood was collected via cardiac puncture into CP2D anticoagulant-coated syringes. CP2D was then added to the whole blood in a 1:7 ratio and gently mixed. Whole blood was centrifuged at 1,000 g for 10 minutes at 4° C. and platelet-rich plasma was discarded. Storage solution (AS-3) was added to erythrocytes in a 2:9 ratio using the original whole blood volume. Units were stored at 4° C. for 14 days.
# (§2) Erythrocytes were pelleted from pRBC samples at 2,000 g for 10 minutes at 4° C. The supernatant from this spin was then centrifuged at 10,000 g for 10 minutes at 4° C. to pellet any remaining cells or platelets. The MP-rich supernatant from this second spin was used to characterize MP production and hemolysis. MPs were pelleted using a 20,000 g spin for 30 minutes at 4° C.
# C57BL/6 mice = assay: Lung inflammation after transfusion of aged pRBCs, histology (edema, Gr1 inflammatory cells, ZO1 tight junctions); assay type: in vivo, mouse; settings: 200 μl IV aged pRBCs treated with 125 μM AT, lungs taken 6 hours after transfusion
# Experimental: Male C57BL/6 mice aged 8-10 weeks were purchased from Jackson Laboratories, fed standard laboratory diet and water ad libitum, and acclimated for 1 week in climate-controlled conditions with 12 hours light-dark cycles prior to use. Asm-deficient mice (Asm^−/−) on a C57BL/6 background were used and compared to syngenic C57Bl/6 wild type mice as controls. All experiments were approved by the Institutional Animal Care and Use Committee at the University of Cincinnati. To study the effect of AT treatment on lung inflammation following blood transfusion, mice received 200 μl IV injections of pRBCs or MPs. Lungs were taken 6 hours after transfusion for either histologic or Evans blue evaluation. Histologic lung sections were examined for evidence of lung edema with hematoxylin and inflammatory cells with anti-Gr1 antibodies (AbD Serotec, Raleigh, NC). Tight junction integrity was assessed by staining lung slides with Cy3-conjugated anti-ZO1 (Jackson ImmunoResearch, West Grove, PA). Endothelial cell permeability was assessed using the Evans blue method (source). In brief, mice were weighed and injected with 30 mg/kg Evans blue. After 10 minute of circulation time, mice were sacrificed and the pulmonary vasculature was flushed with 10 ml PBS. Lungs were dried at 55° C. for 24 hours and then incubated in 500 μl formamide for 48 hours at 55° C. Evans blue extraction calculated by measuring the optical density at 620 nm and comparing to a standard curve, and values were normalized to dry lung weight.
# mouse erythrocytes = assay: Erythrocyte characterization by flow cytometry (size, complexity, phosphatidylserine exposure, band 3 integrity); assay type: cell-based
# Experimental: as §1
# (§3) Hemoglobin in the MP-rich supernatant was quantified using a Coulter AcT diff Analyzer (Beckman Coulter Corp., Brea, CA). Cell size (forward scatter), complexity (side scatter), phosphatidylserine exposure (annexin V positivity), and band 3 protein integrity (eosin-5-maleimide^68) were analyzed using an Attune flow cytometer (Life Technologies, Carlsbad, CA). Antibodies for ter119, CD235a, CD41, CD45, and Annexin V were acquired from BD Biosciences (San Diego, CA), and eosin-5-maleimide was obtained from Life Technologies (Carlsbad, CA).
# mouse pRBCs [2] = assay: Hemolysis (cell-free hemoglobin) in stored mouse pRBCs; assay type: cell-based; settings: mouse pRBCs stored at 4° C. for 14 days, inhibitor added prior to storage
# Experimental: as §1
# as §2, with “MPs were pelleted using a 20,000 g spin for 30 minutes at 4° C.” left out
# as §3, with “Antibodies for ter119, CD235a, CD41, CD45, and Annexin V were acquired from BD Biosciences (San Diego, CA), and eosin-5-maleimide was obtained from Life Technologies (Carlsbad, CA).” left out
# mouse pRBCs [3] = assay: Microparticle formation in stored mouse pRBCs (Nanoparticle Tracking Analysis); assay type: cell-based; settings: mouse pRBCs stored at 4° C. for 14 days, inhibitor added prior to storage
# Experimental: as §1, §2
# human pRBCs [4] = assay: Hemolysis (cell-free hemoglobin) in stored human pRBCs; assay type: cell-based; settings: human pRBCs stored at 4° C., increasing AT concentration
# Experimental: as §1
# as §2, with “MPs were pelleted using a 20,000 g spin for 30 minutes at 4° C.” left out
# as §3, with “Antibodies for ter119, CD235a, CD41, CD45, and Annexin V were acquired from BD Biosciences (San Diego, CA), and eosin-5-maleimide was obtained from Life Technologies (Carlsbad, CA).” left out
SMILES,MP formation (human pRBCs [1]),disruption of tight junctions in the lung (ZO1) (C57BL/6 mice),inflammatory cell recruitment to the lungs (C57BL/6 mice),lung edema (C57BL/6 mice),age-related phosphatidylserine expression (annexin V positivity) (mouse erythrocytes; aged mouse erythrocytes),age-related decrease in cell complexity (side scatter) (mouse erythrocytes; stored mouse erythrocytes),"reduction of band 3 degradation (eosin-5-maleimide) (mouse erythrocytes; stored mouse erythrocytes, 125 μM AT) [%]",age-related decrease in cell size (forward scatter) (mouse erythrocytes; stored mouse pRBCs),hemolysis (cell-free hemoglobin) (mouse pRBCs [2]),MP formation (mouse pRBCs [3]),hemolysis (cell-free hemoglobin) (human pRBCs [4])
"CN(C)CCC=C1c2ccccc2CCc2ccccc21 [AT, Amitriptyline]",dose-dependent reduction of MP formation,mitigated,greatly reduced,greatly reduced,reduced this age-related phosphatidylserine expression in a dose dependent manner,mitigated,~50,mitigated,dose-dependent reduction in hemolysis,dose-dependent reduction of MP formation,dose-dependent reduction in hemolysis
CNCCC(Oc1ccc(C(F)(F)F)cc1)c1ccccc1 (stereo not drawn) [Fluoxetine],,,,,,,,,reduced hemolysis,,
